Target: T1, human OX2R (Homo sapiens, UniProt O43614)
T1 construct: expressed in transfected cells; host or cells: Chinese hamster ovary (CHO) cells, kept under G418 selection
T1 sequence (O43614 1-444): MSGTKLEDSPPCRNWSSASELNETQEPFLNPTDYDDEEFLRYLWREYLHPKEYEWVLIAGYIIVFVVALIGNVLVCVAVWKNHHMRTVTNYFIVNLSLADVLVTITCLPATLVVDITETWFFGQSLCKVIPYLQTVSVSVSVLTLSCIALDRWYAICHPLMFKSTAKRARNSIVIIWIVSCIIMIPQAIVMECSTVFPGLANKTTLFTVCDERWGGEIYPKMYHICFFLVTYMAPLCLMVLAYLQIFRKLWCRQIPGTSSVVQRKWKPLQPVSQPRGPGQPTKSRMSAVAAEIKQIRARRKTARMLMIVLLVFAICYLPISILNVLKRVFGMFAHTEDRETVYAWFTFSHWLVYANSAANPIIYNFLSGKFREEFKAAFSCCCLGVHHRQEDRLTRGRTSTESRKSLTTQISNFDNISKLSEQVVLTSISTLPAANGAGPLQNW
Assay: IPOne (IP-One) orexin receptor agonist assay in CHO cells expressing human OX2R
Type: cell-based
Conditions: for EC50: CHO cells expressing human OX2R, IP-One detection, 2 hours incubation, four parameter logistic fit, read-out: OX2R Potency, EC50; for % max agonist effect (Emax): human OX2R, percentage of sample raw value/mean max effect (reference compound at 1 uM with 100% activity)
Source text: The utility of the compounds in accordance with the present invention as orexin receptor OX1R and/or OX2R agonists may be readily determined without undue experimentation by methodology well known in the art. Both the OX1R and/or OX2R G-coupled protein receptors (GPCRs) couple through the Gaq signaling pathway, which ultimately promotes calcium mobilization via inositol triphosphate (IP3) production. […] The utility of the compounds in accordance with the present invention as orexin receptor OX1R and/or OX2R agonists may be determined utilizing this assay.
In a typical experiment, the OX1 and OX2 receptor agonist activity is determined in accordance with the following general experimental method. Chinese hamster ovary (CHO) cells expressing human OX1R and/or the human OX2R were grown in Iscove's modified DMEM containing glutaMAX™, 1% G418, 100 U/mL penicillin, 100 μg/mL streptomycin and 10% heat-inactivated qualified fetal bovine serum (FBS). […] During this incubation, IP-one detection reagents were prepared (38:1:1 lysis buffer:D2:AB-cryptate reagents).
For each compound, data were fit to a four parameter logistic fit (ActivityBase software) and the EC50 was reported as the inflection point of the resulting curve. Percent effect for each test compound was determined as the percentage of sample raw value/mean max effect, where the mean max effect was derived from the mean raw value of 32 control wells per assay plate (using Orexin A (cat #003-30) at 1 μM for human OX1R and a reference compound at 1 uM with 100% activity previously established by comparison to Orexin A for human OX2R). The intrinsic orexin receptor agonist activity of a compound which may be used in the present invention may be determined by these assays.

SMILES | EC50 | % max agonist effect (Emax)
Cc1nc(N2CC[C@H](NS(C)(=O)=O)[C@@H]2CO[C@H]2CC[C@@H](c3ccccc3)CC2)cs1 [Example 109, N-((2R,3S)-1-(2-methylthiazol-4-yl)-2-((((CIS)-4-phenylcyclohexyl)oxy)methyl)pyrrolidin-3-yl)methanesulfonamide] | 140 nM | 97.7%
CS(=O)(=O)N[C@H]1CCN(c2nc(O)cs2)[C@H]1CO[C@H]1CC[C@@H](c2ccccc2)CC1 [Example 107, N-((2R,3S)-1-(4-hydroxythiazol-2-yl)-2-((((CIS)-4-phenylcyclohexyl)oxy)methyl)pyrrolidin-3-yl)methanesulfonamide] | 676 nM | 97.2%
COc1c(F)cnc(N2CC[C@H](NS(C)(=O)=O)[C@@H]2CO[C@H]2CC[C@@H](c3cccc(F)c3)CC2)c1F [Example 100, N-((2R,3S)-1-(3,5-difluoro-4-methoxypyridin-2-yl)-2-((((CIS)-4-(3-fluorophenyl)cyclohexyl)oxy)methyl)pyrrolidin-3-yl)methanesulfonamide] | 716 nM | 99.6%
CS(=O)(=O)N[C@H]1CCN(c2ccnc(C#N)c2)[C@H]1CO[C@H]1CC[C@@H](c2ccccc2)CC1 [Example 25, N-((2R,3S)-1-(2-cyanopyridin-4-yl)-2-((((CIS)-4-phenylcyclohexyl)oxy)methyl)pyrrolidin-3-yl)methanesulfonamide] | 5770 nM | 78.6%
Cc1cnc(N2CC[C@H](NS(C)(=O)=O)[C@@H]2CO[C@H]2CC[C@@H](c3ccccc3)CC2)cn1 [Example 65, N-((2R,3S)-1-(5-methylpyrazin-2-yl)-2-((((CIS)-4-phenylcyclohexyl)oxy)methyl)pyrrolidin-3-yl)methanesulfonamide] | 123 nM | 100.9%
Cc1nnc(-c2ccc(N3CC[C@H](NS(C)(=O)=O)[C@@H]3CO[C@H]3CC[C@@H](c4ccccc4)CC3)cc2)o1 (relative stereo) [Example 12, N-((CIS)-1-(4-(5-methyl-1,3,4-oxadiazol-2-yl)phenyl)-2-((((CIS)-4-phenylcyclohexyl)oxy)methyl)pyrrolidin-3-yl)methanesulfonamide] | 10500 nM | 68.8%
CS(=O)(=O)N[C@H]1CCN(c2cccc(=O)[nH]2)[C@H]1CO[C@H]1CC[C@@H](c2ccccc2)CC1 [Example 148, N-((2R,3S)-1-(6-oxo-1,6-dihydropyridin-2-yl)-2-((((CIS)-4-phenylcyclohexyl)oxy)methyl)pyrrolidin-3-yl)methanesulfonamide] | 163 nM | 99.3%
CS(=O)(=O)N[C@H]1CCN(c2cncc(OC(F)F)c2)[C@H]1CO[C@H]1CC[C@@H](c2ccccc2)CC1 [Example 52, N-((2R,3S)-1-(5-(difluoromethoxy)pyridin-3-yl)-2-((((CIS)-4-phenylcyclohexyl)oxy)methyl)pyrrolidin-3-yl)methanesulfonamide] | 649 nM | 99.2%
CS(=O)(=O)N[C@H]1CCN(c2ncccc2C(F)(F)F)[C@H]1CO[C@H]1CC[C@@H](c2ccccc2)CC1 [Example 126, N-((2R,3S)-2-((((CIS)-4-phenylcyclohexyl)oxy)methyl)-1-(3-(trifluoromethyl)pyridin-2-yl)pyrrolidin-3-yl)methanesulfonamide] | 370 nM | 100%
CS(=O)(=O)N[C@H]1CCN(c2cnc3cc[nH]c3c2)[C@H]1CO[C@H]1CC[C@@H](c2ccccc2)CC1 (relative stereo) [Example 7, N-((CIS)-2-((((CIS)-4-phenylcyclohexyl)oxy)methyl)-1-(1H-pyrrolo[3,2-b]pyridin-6-yl)pyrrolidin-3-yl)methanesulfonamide] | 90.5 nM | 100.1%
CS(=O)(=O)N[C@H]1CCN(c2cc(F)cnc2O)[C@H]1CO[C@H]1CC[C@@H](c2ccccc2)CC1 [Example 129, N-((2R,3S)-1-(5-fluoro-2-hydroxypyridin-3-yl)-2-((((CIS)-4-phenylcyclohexyl)oxy)methyl)pyrrolidin-3-yl)methanesulfonamide] | 821 nM | 99.7%
Cc1ncc(N2CC[C@H](NS(C)(=O)=O)[C@@H]2CO[C@H]2CC[C@@H](c3ccccc3)CC2)n1C [Example 32, N-((2R,3S)-1-(1,2-dimethyl-1H-imidazol-5-yl)-2-((((CIS)-4-phenylcyclohexyl)oxy)methyl)pyrrolidin-3-yl)methanesulfonamide] | 37 nM | 100.2%
Cc1cnc(N2CC[C@H](NS(C)(=O)=O)[C@@H]2CO[C@H]2CC[C@@H](c3ccccc3)CC2)n1C [Example 29, N-((2R,3S)-1-(1,5-dimethyl-1H-imidazol-2-yl)-2-((((CIS)-4-phenylcyclohexyl)oxy)methyl)pyrrolidin-3-yl)methanesulfonamide] | 366 nM | 100.0%
COc1cccc(N2CC[C@H](NS(C)(=O)=O)[C@@H]2CO[C@H]2CC[C@@H](c3ccccc3)CC2)n1 [Example 152, N-((2R,3S)-1-(6-methoxypyridin-2-yl)-2-((((CIS)-4-phenylcyclohexyl)oxy)methyl)pyrrolidin-3-yl)methanesulfonamide] | 346 nM | 97.6%

These reach a lower EC50. Values come first.

EC50 | % max agonist effect (Emax) | SMILES
10.8 nM | 100.5% | CS(=O)(=O)N[C@H]1CCN(c2nccc(O)c2Cl)[C@H]1CO[C@H]1CC[C@@H](c2ccccc2)CC1 [Example 120, N-((2R,3S)-1-(3-chloro-4-hydroxypyridin-2-yl)-2-((((CIS)-4-phenylcyclohexyl)oxy)methyl)pyrrolidin-3-yl)methanesulfonamide]
9.8 nM | 100.6% | CS(=O)(=O)N[C@H]1CCN(c2ccc(C#N)nc2)[C@H]1CO[C@H]1CC[C@@H](c2ccccc2)CC1 [Example 145, N-((2R,3S)-1-(6-cyanopyridin-3-yl)-2-((((CIS)-4-phenylcyclohexyl)oxy)methyl)pyrrolidin-3-yl)methanesulfonamide]
2 nM | 100.3% | CS(=O)(=O)N[C@H]1CCN(c2nccc(O)c2F)[C@H]1CO[C@H]1CC[C@@H](c2c(F)ccc(F)c2F)CC1 [Example 161, N-((2R,3S)-1-(3-fluoro-4-hydroxypyridin-2-yl)-2-((((CIS)-4-(2,3,6-trifluorophenyl)cyclohexyl)oxy)methyl)pyrrolidin-3-yl)methanesulfonamide]
1.8 nM | 97.9% | C[C@@H]1C[C@H](NS(C)(=O)=O)[C@H](CO[C@H]2CC[C@@H](c3ccccc3)CC2)N1c1nnnn1C [Example 80, N-((2R,3S,5R)-5-Methyl-1-(1-methyl-1H-tetrazol-5-yl)-2-((((CIS)-4-phenylcyclohexyl)oxy)-methyl)pyrrolidin-3-yl)methanesulfonamide]
0.6 nM | 100.9% | CS(=O)(=O)N[C@H]1CCN(c2cc(O)c(Cl)cn2)[C@H]1CO[C@H]1CC[C@@H](c2cccc(F)c2)CC1 [Example 97, N-((2R,3S)-1-(5-chloro-4-hydroxypyridin-2-yl)-2-((((CIS)-4-(3-fluorophenyl)cyclohexyl)oxy)methyl)pyrrolidin-3-yl)methanesulfonamide]
0.45 nM | 100.8% | C[C@@H]1C[C@H](NS(=O)(=O)N(C)C)[C@H](CO[C@H]2CC[C@@H](c3cccc(F)c3)CC2)N1c1nccc(O)c1F [Example 156, N′-((2R,3S,5R)-1-(3-fluoro-4-hydroxypyridin-2-yl)-2-((((CIS)-4-(3-fluorophenyl)cyclohexyl)oxy)methyl)-5-methylpyrrolidin-3-yl)-N,N-dimethyl-sulfamide]
0.23 nM | 100.5% | C[C@@H]1C[C@H](NS(=O)(=O)N(C)C)[C@H](CO[C@H]2CC[C@@H](c3cccc(F)c3)CC2)N1c1cc(O)c(Cl)cn1 [Example 95, N′-((2R,3S,5R)-1-(5-chloro-4-hydroxypyridin-2-yl)-2-((((CIS)-4-(3-fluorophenyl)cyclohexyl)oxy)methyl)-5-methylpyrrolidin-3-yl)-N,N-dimethyl-sulfamide]
